Tests used:
[1] = system: vitamin D (25, 1,25, 24,25); assay: Vitamin D (25, 1,25, 24,25) levels by LC-MS/MS, trials IDA-04/IDA-05; format: in vivo, human; conditions: IDA-04 and IDA-05 combined
Method: The term “serum vitamin D” as used herein refers to the level of vitamin Ds, in particular 25-hydroxyvitamin D, 1,25-dihydroxyvitamin D, and 24,25-dihydroxyvitamin D, in blood serum as measured by Liquid Chromatography and Tandem Mass Spectrometry (LC-MS/MS).
The trial was a randomized, open-label, comparative trial. […]
The following safety laboratory assessments were analysed: • S-phosphate: inorganic phosphorous forms an ammonium phosphomolybdate complex having the formula (NH4)3[PO4](MoO3)12 with ammonium molybdate in the presence of sulfuric acid. The complex was determined photometrically in the ultraviolet region (340 nm) of the spectrum using the Roche Modular and Cobas Analyzer. • iFGF23 and cFGF23: the human intact FGF23 was measured by the 2nd generation Elisa kit manufactured by Immonotropics, Inc, San Clemente, CA. […] The human C-terminal FGF23 was measured by the Elisa kit manufactured by Immonotropics, Inc, San Clemente, CA. […] After evaporation under nitrogen, the residue was reconstituted and analyzed using Liquid Chromatography (LC) with Tandem Mass Spectrometric detection (MS/MS). […]

[2] = Respiratory muscles strength (MIP and MEP), trials IDA-04/IDA-05; format: in vivo, human; conditions: relative to the comparator IV iron treatment
Method: The trial was a randomized, open-label, comparative trial. Subjects with Iron Deficiency Anaemia (IDA) were randomized 1:1 to one treatment course of one of the following treatments: • Group A: iron isomaltoside 1000 (Monofer®, Pharmacosmos, Holbok, Denmark, termed iron isomaltoside in the following), 1000 mg at baseline • Group B: ferric carboxymaltose (Ferinject®/Injectafer®, Vifor Inc, Switzerland), 750 mg at baseline and day 7, cumulative dose: 1500 mg […]
The measurements of MIP and MEP provided a non-invasive clinical method for evaluating the strength of respiratory muscles, and it was the most widely used test to assess muscle pressures [ATS/ERS statement, 2002]. […] MIP and MEP were measured by MicroRPM (CareFusion Germany 234 GmbH, Hoechberg, Germany). […]

[3] = cited from earlier work
[4] = compared to iron dextran, iron sucrose and iron isomaltoside 1000

ferric carboxymaltose [FCM]
1,25-dihydroxyvitamin D [1]: decrease | 24,25-dihydroxyvitamin D [1]: increase | respiratory muscle strength (maximal inspiratory and/or expiratory pressure) [2]: reduced | risk for iFGF23-mediated reduction of serum phosphate levels and development of hypophosphatemia ([3]; clinical trials and case reports, Wolf et al., 2013): highest risk | time to minimum serum phosphorous values ([3]; clinical trials, EU SmPC): approximately 2 weeks | prevalence of hypophosphatemia [3, 4]: higher prevalence | reduction in serum phosphate [3, 4]: larger and longer reduction | time until serum phosphorous returned to within the range of baseline ([3]; following treatment, clinical trials, EU SmPC): 4 to 12 weeks | serum phosphate ([3]; women with IDA secondary to heavy uterine bleeding, Wolf et al., 2013): reduced
